This assay relates to Mycosphaerella graminicola; Anamorph: Septoria tritici; Bayer Code SEPTTR. Briefly: Leaf blotch of wheat, foliar fungicide treatment, one day protectant (1DP) or three day curative (3DC). Type of assay: in vivo, Septoria tritici on wheat plants (variety Yuma). The following applies: Zymoseptoria tritici; for pest or weed control at 50 ppm / pest or weed control at 200 ppm: % disease control rating.

The mark [1] stands for this setting: 24 h, one day protectant (1DP), 25 ppm, rating of percent disease control, read-out: SETTTR 1DP 25 ppm.
[2] abbreviates: 24 h, one day protectant (1DP), rating of percent disease control, read-out: SEPTTR 1DP 100 ppm.
[3] abbreviates: 72 h, three day curative (3DC), 25 ppm, rating of percent disease control, read-out: SEPTTR 3DC 25 ppm.
Setting [4] is: 72 h, three day curative (3DC), rating of percent disease control, read-out: SEPTTR 3DC 100 ppm.
The mark [5] stands for this setting: 24 h, one day protectant (1DP), 25 ppm, percent disease control rating, read-out: SETTTR 1DP 25 ppm.
Where [6] appears, read: 24 h, one day protectant (1DP), percent disease control rating, read-out: SEPTTR 1DP 100 ppm.
Where [7] appears, read: 72 h, three day curative (3DC), 25 ppm, percent disease control rating, read-out: SEPTTR 3DC 25 ppm.
The mark [8] stands for this setting: 72 h, three day curative (3DC), percent disease control rating, read-out: SEPTTR 3DC 100 ppm.
[9] abbreviates: 24 h, one day protectant (1DP), 25 ppm (first 1DP column), percent control rating, read-out: SETTTR 1DP 25 ppm.
[10] abbreviates: 24 h, one day protectant (1DP), 25 ppm as printed (second 1DP column), percent control rating, read-out: SETTTR 1DP 25 ppm.
[11] abbreviates: 72 h, three day curative (3DC), 25 ppm, percent control rating, read-out: SEPTTR 3DC 25 ppm.
[12] abbreviates: 72 h, three day curative (3DC), percent control rating, read-out: SEPTTR 3DC 100 ppm.
[13] abbreviates: 24 h, one day protectant, 25 ppm, rating of percent disease control, read-out: SETTTR 1DP 25 ppm.
Where [14] appears, read: 24 h, one day protectant, rating of percent disease control, read-out: SEPTTR 1DP 100 ppm.
[15] abbreviates: 72 h, three day curative, 25 ppm, rating of percent disease control, read-out: SEPTTR 3DC 25 ppm.
Setting [16] is: 72 h, three day curative, rating of percent disease control, read-out: SEPTTR 3DC 100 ppm.

Like-named read-outs stand apart in the source and are kept apart here.

For the setting “24 h, one day protectant”, `Fc1cnc(OCc2ccco2)nc1NCc1cccs1` [Compound 899] had a pest or weed control at 50 ppm of 26 to 50% and a pest or weed control at 200 ppm of 76 to 100%.

As to `NN(c1ccccc1)c1nc(OCc2ccccc2)ncc1F` [Compound 482], the pest or weed control at 25 ppm lay in the range of 0 to 25% under setting [1] and 0 to 25% under setting [3]. Moreover, the pest or weed control at 100 ppm under setting [2] was in the range of 0 to 25% and the pest or weed control at 100 ppm under setting [4] was 26 to 50%.

With `CCCNC(=S)Nc1nc(OCc2ccccc2OC)ncc1F` [Compound 475], the pest or weed control at 25 ppm by setting is: under setting [1], 51 to 75%; under setting [3], 51 to 75%. In addition, the pest or weed control at 100 ppm was 76 to 100% under setting [2] and 76 to 100% under setting [4].

For `CC#CCOc1ncc(F)c(NC(C)=O)n1` [Compound 745], the pest or weed control at 25 ppm is, setting by setting: under setting [1], 76 to 100%; under setting [3], 76 to 100%. Further, the pest or weed control at 100 ppm was in the range of 76 to 100% under setting [2] and 76 to 100% under setting [4].

On to `COc1cccc(COc2ncc(F)c(NC(=S)NCc3ccccc3F)n2)c1` [Compound 54], for which the pest or weed control at 25 ppm reads like this: under setting [5], 51 to 75%; under setting [7], 0 to 25%. In addition, the pest or weed control at 100 ppm is, setting by setting: under setting [6], 76 to 100%; under setting [8], 0 to 25%.

On to `Fc1ccccc1CNc1nc(OC2CCCCC2)ncc1F` [Compound 803], for which, for the setting “24 h, one day protectant”, the pest or weed control at 50 ppm was 0 to 25% and the pest or weed control at 200 ppm lay within 51 to 75%.

Take `CN1CCCC/C1=N\c1nc(OCc2ccc(F)cc2)ncc1F` [Compound 160]: the pest or weed control at 25 ppm under setting [5] lay in the range of 76 to 100% and the pest or weed control at 25 ppm under setting [7] was 76 to 100%. For the same compound, the pest or weed control at 100 ppm fell in the range of 76 to 100% under setting [6] and 76 to 100% under setting [8].

`COc1ccccc1NC(=O)Nc1nc(O)ncc1F` [Compound 954, 1-(5-Fluoro-2-hydroxypyrimidin-4-yl)-3-(2-methoxyphenyl)urea]: the pest or weed control at 25 ppm is 26 to 50% under setting [9], 26 to 50% under setting [10] and 26 to 50% under setting [11]. Under setting [12], the pest or weed control at 100 ppm fell in the range of 51 to 75%.

`CC(Oc1ncc(F)c(N)n1)c1c(Cl)ccc(Cl)c1Cl` (stereo not shown) [Compound 382]: the pest or weed control at 25 ppm under setting [1] was in the range of 76 to 100% and the pest or weed control at 25 ppm under setting [3] lay in the range of 0 to 25%. Moreover, the pest or weed control at 100 ppm under setting [2] lay in the range of 76 to 100% and the pest or weed control at 100 ppm under setting [4] is 76 to 100%.

In turn, `COc1cccc(COc2ncc(F)c(NCc3cccs3)n2)c1` [Compound 931] came in with a pest or weed control at 200 ppm (24 h, one day protectant) of 76 to 100%.

Where the note is “24 h, one day protectant”, `Fc1cnc(OCC(F)(F)F)nc1NCc1ccc2c(c1)OCO2` [Compound 950] displayed a pest or weed control at 50 ppm of 0 to 25% and a pest or weed control at 200 ppm of 0 to 25%.

As for `CCCCOc1cccc(COc2ncc(F)c(N)n2)c1` [Compound 708], the pest or weed control at 25 ppm fell in the range of 76 to 100% under setting [13] and 76 to 100% under setting [15]. The pest or weed control at 100 ppm lay within 76 to 100% under setting [14] and 76 to 100% under setting [16].

For `CC(=O)Nc1nc(OCCc2ccc(Cl)cc2)ncc1F` [Compound 624], the pest or weed control at 25 ppm under setting [13] is 51 to 75% and the pest or weed control at 25 ppm under setting [15] lay in the range of 51 to 75%. Besides, the pest or weed control at 100 ppm is, setting by setting: under setting [14], 76 to 100%; under setting [16], 76 to 100%.

As for `COc1ccc(COc2ncc(F)c(/N=C/N(C)C)n2)cc1` [Compound 726], the pest or weed control at 25 ppm lay in the range of 76 to 100% under setting [13] and 76 to 100% under setting [15]. For the same compound, the pest or weed control at 100 ppm reads like this: under setting [14], 76 to 100%; under setting [16], 76 to 100%.

Consider `COCCCOc1ncc(F)c(NC(C)=O)n1` [Compound 321], for which the pest or weed control at 25 ppm was 76 to 100% under setting [1] and 76 to 100% under setting [3]. For the same compound, the pest or weed control at 100 ppm reads like this: under setting [2], 76 to 100%; under setting [4], 76 to 100%.

Turning to `CN1CCCC/C1=N\c1nc(OCc2cccc(C#N)c2)ncc1F` [Compound 261], the pest or weed control at 25 ppm lay in the range of 51 to 75% under setting [1] and 51 to 75% under setting [3]. For the same compound, the pest or weed control at 100 ppm by setting is: under setting [2], 76 to 100%; under setting [4], 76 to 100%.

`CC(C)OC(=O)Oc1ncc(F)c(/N=C/N(C)C)n1` [Compound 467]: the pest or weed control at 25 ppm is, setting by setting: under setting [1], 76 to 100%; under setting [3], 76 to 100%. The pest or weed control at 100 ppm runs as follows: under setting [2], 76 to 100%; under setting [4], 76 to 100%.

Regarding `Fc1cnc(OCc2ccc(OC(F)(F)F)cc2)nc1NC1CC1` [Compound 855], for the setting “24 h, one day protectant”, the pest or weed control at 200 ppm lay within 76 to 100%.

For the compound `Cc1noc(-c2ccccc2COc2ncc(F)c(N)n2)n1` [Compound 486], the pest or weed control at 25 ppm by setting is: under setting [1], 0 to 25%; under setting [3], 26 to 50%. The pest or weed control at 100 ppm is, setting by setting: under setting [2], 0 to 25%; under setting [4], 26 to 50%.

On to `CN(C)/C=N/c1nc(OC(=O)c2c(Cl)cccc2Cl)ncc1F` [Compound 234], for which the pest or weed control at 25 ppm reads like this: under setting [1], 76 to 100%; under setting [3], 76 to 100%. For the same compound, the pest or weed control at 100 ppm lay within 76 to 100% under setting [2] and 76 to 100% under setting [4].

On to `COc1ncc(F)c(NNc2ncnc3ccccc23)n1` [Compound 1051], for which the pest or weed control at 25 ppm is, setting by setting: under setting [9], 0 to 25%; under setting [10], 0 to 25%; under setting [11], 26 to 50%. In addition, the pest or weed control at 100 ppm under setting [12] lay in the range of 0 to 25%.

Turning to `Fc1ccccc1CNc1nc(OCCc2ccccc2)ncc1F` [Compound 948], under “24 h, one day protectant”, the pest or weed control at 50 ppm lay in the range of 0 to 25% and the pest or weed control at 200 ppm lay within 0 to 25%.

Consider `Fc1ccccc1NC(=S)Nc1nc(OCc2cccs2)ncc1F` [Compound 711], for which the pest or weed control at 25 ppm was 51 to 75% under setting [13] and 26 to 50% under setting [15]. Also, the pest or weed control at 100 ppm is 76 to 100% under setting [14] and 76 to 100% under setting [16].

On to `CC(C)=NNc1nc(OCc2ccc(F)cc2)ncc1F` [Compound 358], for which the pest or weed control at 25 ppm reads like this: under setting [1], 0 to 25%; under setting [3], 26 to 50%. Moreover, the pest or weed control at 100 ppm runs as follows: under setting [2], 51 to 75%; under setting [4], 76 to 100%.

As for `COc1cc(Cl)c(COc2ncc(F)c(N)n2)cc1OC` [Compound 350], the pest or weed control at 25 ppm is, setting by setting: under setting [1], 76 to 100%; under setting [3], 76 to 100%. In addition, the pest or weed control at 100 ppm lay within 76 to 100% under setting [2] and 76 to 100% under setting [4].

Consider `Fc1cnc(OCc2cccc(C(F)(F)F)c2)nc1NCc1cccs1` [Compound 806], for which the pest or weed control at 200 ppm (24 h, one day protectant) was 76 to 100%.

On to `CN(C)/C=N/c1nc(OC(=O)c2ccc(Cl)cc2)ncc1F` [Compound 585], for which the pest or weed control at 25 ppm by setting is: under setting [13], 76 to 100%; under setting [15], 76 to 100%. Further, the pest or weed control at 100 ppm by setting is: under setting [14], 76 to 100%; under setting [16], 76 to 100%.

Regarding `Fc1cnc(OCc2ccc(Cl)c(Cl)c2)nc1NC1CC1` [Compound 909], where the note is “24 h, one day protectant”, the pest or weed control at 200 ppm lay within 76 to 100%.

For the compound `CC(=O)Nc1nc(O/N=C(\C)c2ccccc2)ncc1F` [Compound 616], the pest or weed control at 25 ppm by setting is: under setting [13], 76 to 100%; under setting [15], 76 to 100%. For the same compound, the pest or weed control at 100 ppm was in the range of 76 to 100% under setting [14] and 76 to 100% under setting [16].

For `CC(C)S(=O)(=O)Nc1nc(OCc2ccc(F)cc2)ncc1F` [Compound 1004], the pest or weed control at 25 ppm reads like this: under setting [9], 0 to 25%; under setting [10], 0 to 25%; under setting [11], 0 to 25%. Also, the pest or weed control at 100 ppm under setting [12] lay in the range of 26 to 50%.

As for `Nc1nc(OCc2ccc3ccccc3n2)ncc1F` [Compound 465], the pest or weed control at 25 ppm lay in the range of 76 to 100% under setting [1] and 76 to 100% under setting [3]. In addition, the pest or weed control at 100 ppm lay within 76 to 100% under setting [2] and 76 to 100% under setting [4].

For `CNc1nc(OCc2cccs2)ncc1F` [Compound 237], the pest or weed control at 25 ppm reads like this: under setting [1], 0 to 25%; under setting [3], 0 to 25%. Besides, the pest or weed control at 100 ppm is, setting by setting: under setting [2], 0 to 25%; under setting [4], 0 to 25%.

Under “24 h, one day protectant”, `Cc1ccc(CNc2nc(OC3CCCCC3)ncc2F)cc1` [Compound 875] gave a pest or weed control at 50 ppm of 0 to 25% and a pest or weed control at 200 ppm of 76 to 100%.

`Cc1cccc(C)c1C(=O)Oc1ncc(F)c(/N=C/N(C)C)n1` [Compound 140]: the pest or weed control at 25 ppm by setting is: under setting [5], 76 to 100%; under setting [7], 76 to 100%. Further, the pest or weed control at 100 ppm by setting is: under setting [6], 76 to 100%; under setting [8], 76 to 100%.

With `Nc1nc(OCc2cccnc2Cl)ncc1F` [Compound 580], the pest or weed control at 25 ppm was in the range of 51 to 75% under setting [13] and 0 to 25% under setting [15]. The pest or weed control at 100 ppm runs as follows: under setting [14], 76 to 100%; under setting [16], 51 to 75%.

Values taken from patent US9204653B2, “5-fluoro pyrimidine derivatives” (DOW AGROSCIENCES LLC, priority 2008, dated 2015).
